Entries after “also recorded” stand apart in the source; their conditions may differ.
Columns and labels:
Format in all cases: physicochemical
[1] = Photostability test (4500 ± 500 Lx); details: for Appearance / Content / Related substance: 4500 ± 500lx
Description: (§1) The conditions and methods of related substance test involved in this invention was in accordance with HPLC (Appendix VD of Chinese Pharmacopoeia, Vol. II, (2005)).
(§2) Chromatographic conditions and system applicability:
(§3) octadecylsilane bonded silica as the filler; 0.05 mol/L of potassium dihydrogen phosphate (adjusted to pH 2.5 by phosphoric acid)-methanol (45:55) as the mobile phase; detection wavelength was 230 nm; the number of theoretical plates should be not less than 2000, calculated according to the peak area of Dasatinib. The resolution of the peak of Dasatinib from the peaks of adjacent impurities should meet requirements.
(§4) Test Method: the sample was weight and dissolved into mobile phase to be the solution containing 0.5 mg per mL, and 20 μL of this solution was taken and injected into liquid chromatography. Chromatogram was recorded until it is 6 times as the retention time of the main peak.
(§5) The Polymorph I of Dasatinib monohydrate was distributed homogeneously in open petri dish with the thickness of the raw material not more than 5 mm, and the distance was adjusted to make illumination intensity at 4500±500 Lx. Sample was tested at the 5th and 10th day respectively and the results were contrasted with that of the Day 0. Results were listed in Tab. 2.
as §5, with “II” for “I”, “Dasatinib” for “Dasatinib monohydrate”, “7.” for “2.”

[2] = High temperature test (60° C.); details: for Change of appearance in high temperature test (in words) / Change of content in high temperature test (in words): summary of 10-day test
Description: as §1, §2, §3, §4
2.2 High Temperature Test
The raw material of Polymorph I of Dasatinib monohydrate was put into a clean sealed glass bottle and then put in thermostatic drying chamber at 60° C. Sample was tested at the 5th and 10th day respectively and the results were contrasted with that of the Day 0. Results were listed in Tab. 3.
The raw material of Polymorph II of Dasatinib was put into a clean sealed glass bottle and then put in thermostatic drying chamber at 60° C. Sample was tested at the 5th and 10th day respectively and the results were contrasted with that of the Day 0. Results were listed in Tab. 8.

[3] = Stability of polymorph in the formulations (XRPD and relative substances after formulation); details: for Change of relative substances of bulk drug in the formulation (in words): after formulation into capsules or tablets; for Change of crystalline form after being formulated: capsules or tablets, XRPD
Description: Stability of Polymorph in the Formulations
The XRPD patterns of capsules and tablets respectively prepared in the Example 3 and Example 4 have been tested, and compared with XRPD characteristic peaks of Polymorph I of Dasatinib prepared by the Method A in the Example 1 in the present invention, as listed in the following table:
In addition, The relative substances of capsules and tablets respectively prepared in the Example 3 and Example 4 have been tested, and compared with those of Polymorph I of Dasatinib prepared by the Method A in the Example 1 in the present invention, as listed in the following table: […]

Content ([1]; day 0)	Related substance ([1]; day 0)	Content ([1]; day 5)	Related substance ([1]; day 5)	Content ([1]; day 10)	Related substance ([1]; day 10)	Change of content in photostability test (in words) ([1]; summary of 10-day test)	Change of related substances in photostability test (in words) ([1]; summary of 10-day test)	Content ([2]; day 0)	Related substance ([2]; day 0)	Content ([2]; day 5)	Related substance ([2]; day 5)	Content ([2]; day 10)	Related substance ([2]; day 10)	Change of appearance in high temperature test (in words) [2]	Change of content in high temperature test (in words) [2]	SMILES	Change of relative substances of bulk drug in the formulation (in words) [3]	Change of crystalline form after being formulated [3]	other results
99.7%	0.07%	99.6%	0.21%	99.4%	0.34%	of some drop	increased slightly	99.8%	0.06%	99.7%	0.09%	99.5%	0.12%	few obvious change	went down marginally	Cc1nc(Nc2ncc(C(=O)Nc3c(C)cccc3Cl)s2)cc(N2CCN(CCO)CC2)n1 [Polymorph I, N-(2-chloro-6-methylphenyl)-2-[[6-[4-(2-hydroxyethyl)-1-piperazinyl]-2-methyl-4-pyrimidyl]amino]-5-thiazolformamide]	didn't increase; also recorded: no significantly changes	no substantially change; also recorded: substantially no change	Appearance ([1]; day 0): white powder; Appearance ([1]; day 5): white powder; Appearance ([1]; day 10): white powder; Appearance ([2]; day 0): white powder; Appearance ([2]; day 5): white powder; Appearance ([2]; day 10): white powder; Relative substances ([3]; bulk drug vs capsules and tablets of Examples 3 and 4): 0.07%
99.8%	0.06%	99.6%	0.22%	99.3%	0.36%	of some drop	increased slightly	99.8%	0.06%	99.7%	0.11%	99.4%	0.16%	few obvious change	few obvious change	Cc1nc(Nc2ncc(C(=O)Nc3c(C)cccc3Cl)s2)cc(N2CCN(CCO)CC2)n1 [Polymorph II, N-(2-chloro-6-methylphenyl)-2-[[6-[4-(2-hydroxyethyl)-1-piperazinyl]-2-methyl-4-pyrimidyl]amino]-5-thiazolformamide]	didn't increase	no substantially change	Change of appearance in photostability test (in words) ([1]; summary of 10-day test): no obvious change
